Where “and” joins values, the source holds several entries; their conditions need not be identical. Equal entries are not always repeated. Entries after “also recorded” stand apart in the source; their conditions may differ.
Experiments:
[1] = test system: immature dendritic cells (iDCs); assay: Luciferase expression after electroporation of 5′-capped luciferase RNA into immature dendritic cells; format: cell-based, human; settings: for transl. efficiency: maximal slope of curve; for transl. efficiency / relative total protein expression: m7GpppG RNA set to 1, mean ± SD; for relative total protein expression: luciferase, 72 h time course
[2] = test system: mature dendritic cells (mDCs); assay: Luciferase expression after electroporation of 5′-capped luciferase RNA into mature dendritic cells; format: cell-based, human; settings: for protein expression (in words) / transl. efficiency: luciferase RNA; for transl. efficiency: maximal slope of curve; for transl. efficiency / relative total protein expression: m7GpppG RNA set to 1, mean ± SD; for relative total protein expression: luciferase, 72 h time course; for time of max.: time point of maximal luciferase expression, mean ± SD
immature dendritic cells [3] = assay: d2eGFP expression (flow cytometry) after introduction of capped RNA into immature dendritic cells; format: cell-based, human; settings: iDCs
immature dendritic cells [4] = assay: Luciferase activity with increasing RNA amounts (40 vs 20 pmol) in immature dendritic cells; format: cell-based; settings: iDCs
Experimental: (§1) FIG. 3. Competition for translation between ARCA- and beta-S-ARCA(D1)-capped RNAs. Immature dendritic cells (iDCs) were electroporated with (A) increasing amounts of luciferase-encoding RNAs or (B) the indicated amounts of luciferase- and d2eGFP-encoding mRNAs, which were co-transcriptionally capped either with ARCA or beta-S-ARCA(D1) as indicated. The luciferase activity was measured after 2, 4, 8, 24, 48, and 72 hours. Shown is (A) the ratio between the luciferase activities obtained after electroporation with 40 and 20 pmol luciferase-encoding RNAs (±SD of two independent experiments), and (B) the relative luciferase activity compared to cells electroporated with only luciferase-encoding RNA without RNA (set to 1 for both ARCA- and beta-S-ARCA(D1)-capped RNA).
The results described so far indicate that the translational efficiency of an mRNA is influenced in dendritic cells by the type of the cap structure at its 5′ end. This is most likely due to differences in the efficiency by which the translational machinery is recruited to the different 5′ cap-structures. To corroborate this, we next analyzed (i) the effect of the RNA dose that is used for electroporation into immature dendritic cells, and (ii) the impact of a second RNA co-electroporated into immature dendritic cells on the protein expression. By increasing the amount of the electroporated mRNA, it is expected that at some point one or more translation factor(s) will become rate limiting in the cell, which will then restrict the amount of protein that can be synthesized from the exogenous RNA. Similarly, a second RNA will compete for the translation machinery, again influencing the translation efficiency.
Increasing amounts (20 pmol and 40 pmol) of luciferase-encoding RNAs co-transcriptionally capped with either ARCA or beta-S-ARCA(D1) were electroporated into immature dendritic cells, and the luciferase activity was measured after 2, 4, 8, 24, 48, and 72 hours. […] At this time-point, the level of luciferase protein was only about 1.6-fold as high as when half the amount of RNA was used. This ratio decreased even further 48 and 72 hours after electroporation (1.4- and 1.2-fold, respectively).

[5] = test system: immature dendritic cells (iDCs); assay: RNA stability (half-life) by real time RT-PCR of d2eGFP RNA in immature dendritic cells; format: cell-based, human
[6] = test system: inguinal lymph nodes of mice; assay: In vivo luciferase imaging after intranodal injection of luciferase RNA
Experimental: FIG. 5. Effect of the 5′-cap structure on protein expression in vivo. Mice (n=9) have been injected intranodally with the same amount of luciferase encoding RNA with ARCA or beta-S-ARCA(D1) at the 5′-end (as indicated). The luciferase activity (given in RLU) has been measured after 2, 4, 8, 24, 48, and 72 hours. (A) Images of whole animals at the indicated time points of a representative mouse, which has been injected with ARCA or beta-S-ARCA(D1) RNA are shown. (B) Mean±standard error of the mean as measured in the time course. The significance has been determined using statistical analyses (*: P<0.005 and **: P<0.02).
RNA which is administered in this way is primarily taken up by immature dendritic cells. Thus, we have investigated whether stronger protein expression is also observed in lymph nodes for beta-S-ARCA(D1) RNA compared to RNAs with other cap structures (analyzed exemplarily for ARCA which we have applied in the earlier studies). […] After uptake of the RNA by cells of the lymph nodes and translation of the encoded luciferase, protein expression was quantified by measuring luciferase activity using in vivo imaging. […] 25 min after luciferin injection, photons emitted were quantified for an integration time of 1 min. […] To quantify the bioluminescence, regions of interest (ROI) were drawn and total flux (photons/sec, p/s) in ROI was measured. […]

CD8^+-T-cells = assay: De novo T-cell priming after intranodal RNA immunization (tetramer staining); format: in vivo; settings: mice; intranodal immunization day 0 and day 3; day 8
Experimental: FIG. 6. Effect of the 5′-cap structure on de novo priming of T-cells after intranodal immunization with RNA. Mice (n=5) have been immunized by intranodal injection twice […] (day 0 and day 3) with the same amount of RNA encoding a specific peptide antigen which either carries ARCA or beta-S-ARCA(D1) at the 5′-end. The frequency of tetramer positive CD8^+-cells was determined on day 8 using tetramer analysis. (A) Representative dot plots of cells from the peripheral blood and the spleen of mice which have been immunized with ARCA or beta-S-ARCA(D1) RNA (as indicated). (B) Average number of tetramer positive CD8^+-cells±standard error of the mean (in %) as measured on day 8. The significance was determined using statistical analyses (*: P<0.075).
Mice were immunized by intranodal injection of naked RNA twice […] (at day 0 and at day 3) which encodes a specific antigen with the above modifications. On day 8 the frequency of antigen-specific T-cells in peripheral blood and in the spleen was determined using tetramer staining. As shown in FIG. 6 about 5% of the CD8^+-T-cells in peripheral blood and about 6% of the CD8^+-T-cells in the spleen were tetramer positive after duplicate immunization with ARCA RNA. Using beta-S-ARCA(D1) RNA more than 12% and 13% tetramer positive CD8^+-T-cells in peripheral blood and in the spleen, respectively, were measured.

Dcp2 = Dcp2 (Homo sapiens, UniProt Q8IU60); settings: background, earlier work; cited from earlier work
mature dendritic cells = assay: d2eGFP expression (flow cytometry) after introduction of capped RNA into mature dendritic cells; format: cell-based, human; settings: mDCs
HC11 cells = settings: background, earlier work; cited from earlier work
immature dendritic cells [7] = assay: Competition for translation: co-electroporation of d2eGFP RNA with luciferase RNA in immature dendritic cells; format: cell-based; settings: iDCs; same amount of d2eGFP RNA; after 24, 48, and 72 hours vs luciferase RNA only
Experimental: as §1
The results described so far indicate that the translational efficiency of an mRNA is influenced in dendritic cells by the type of the cap structure at its 5′ end. This is most likely due to differences in the efficiency by which the translational machinery is recruited to the different 5′ cap-structures. To corroborate this, we next analyzed (i) the effect of the RNA dose that is used for electroporation into immature dendritic cells, and (ii) the impact of a second RNA co-electroporated into immature dendritic cells on the protein expression. […]

[8] = time point of maximal luciferase expression (functional RNA stability), mean ± SD

Substance	total protein expression (in words) ([1]; luciferase RNA)	transl. efficiency ([1]; luciferase RNA)	relative total protein expression [1]	protein expression (in words) [2]	transl. efficiency [2]	relative total protein expression [2]	time of max. [1, 8]	time of max. [2] [h]	translation efficiency increase in comparison to RNA with m^7GpppG ([1]; luciferase RNA)	also measured
ApppG	do not result in any significant expression	0.01 ± 0.00	0.022 ± 0.001	do not result in protein expression	0.01 ± 0.00	0.008 ± 0.000				
GpppG	do not result in any significant expression	0.18 ± 0.01	0.221 ± 0.001	do not result in protein expression	0.31 ± 0.02	0.593 ± 0.005	11.5 ± 0.0 h	27.5 ± 0.5		
m2^(7,2′-O)GppspG(D1) [beta-S-ARCA(D1)]	highest total protein expression	3.36 ± 0.09	13.094 ± 0.307		3.05 ± 0.14	3.884 ± 0.032		20.1 ± 0.1	about 3.4 fold	expression increase (factor) compared to RNA with ARCA or post-transcriptionally modified RNA ([1]; luciferase RNA): around 3; total protein expression increase compared to RNA synthesized in presence of m^7GpppG ([1]; luciferase RNA): more than 13 fold; total protein expression increase compared to beta-S-ARCA(D2) RNA ([1]; luciferase RNA): about 2 fold; total protein expression (in words) (immature dendritic cells [3]): highest total protein expression; signal with 40 pmol relative to 20 pmol RNA (immature dendritic cells [4]; each time-point (2-72 hours)): about twice as high; RNA stability / degradation (in words) [5]: most stable RNA; protein expression compared to RNA with ARCA (in words) ([6]; 2, 4, 8, 24, 48, and 72 hours after intranodal application): higher at each time point; expression throughout the entire time course (integral of the curve), increase vs ARCA RNA ([6]; intranodal injection, luciferase, 2-72 hours): about 8 fold; tetramer positive CD8^+-T-cells in peripheral blood (CD8^+-T-cells): more than 12%; tetramer positive CD8^+-T-cells in the spleen (CD8^+-T-cells): > 13%; Dcp2 cleavage compared to RNA with unmodified ARCA 5′-cap (Dcp2): 71%
m2^(7,2′-O)GppspG(D2) [beta-S-ARCA(D2)]	second best total expression	3.53 ± 0.17	6.570 ± 0.075	highest protein expression	3.30 ± 0.03	4.042 ± 0.053	12.8 ± 0.0 h	19.4 ± 0.1	about 3.5 fold	total protein expression (in words) (mature dendritic cells): highest total protein expression; Dcp2 cleavage compared to RNA with unmodified ARCA 5′-cap (Dcp2): 6%; translation / total expression in HC11 cells (in words) (HC11 cells): more efficiently translated in HC11 cells; also recorded: strongest total expression
m2^(7,3′-O)GpppG [ARCA]		2.52 ± 0.19	4.777 ± 0.042		2.16 ± 0.00	2.526 ± 0.015	12 h and 12.6 ± 0.1 h	17.5 ± 0.3	about 2.5 fold	level of luciferase protein with 40 pmol relative to 20 pmol RNA (immature dendritic cells [4]; 24 hours after electroporation): about 1.6 fold; level of luciferase protein with 40 pmol relative to 20 pmol RNA (immature dendritic cells [4]; 48 hours after electroporation): 1.4 fold; level of luciferase protein with 40 pmol relative to 20 pmol RNA (immature dendritic cells [4]; 72 hours after electroporation): 1.2 fold; effect of co-electroporated d2eGFP RNA on expression of luciferase RNA (immature dendritic cells [7]): decreased the expression; tetramer positive CD8^+-T-cells in peripheral blood (CD8^+-T-cells): about 5%; tetramer positive CD8^+-T-cells in the spleen (CD8^+-T-cells): about 6%
m^7GpppG [m7GpppG]		1.00 ± 0.04	1.000 ± 0.007		1.00 ± 0.05	1.000 ± 0.003	8.1 ± 1.1 h	16.0 ± 0.3		time of max. (hours) ([1]; time point of maximal luciferase expression (functional RNA stability), mean ± SD, listed as m^7GpppG): around 8 hours
m^7Gppppm^7G [m7Gppppm7G]	even lower than that of RNA which has been transcribed in presence of m^7GpppG	0.20 ± 0.10	0.404 ± 0.004	poorly translated	0.56 ± 0.04	0.176 ± 0.001	4.9 ± 0.1 h	6.0 ± 0.3		RNA stability / degradation (in words) [5]: most unstable RNA

Reference: patent publication US9295717B2, “Vaccine composition comprising 5′-cap modified RNA” (BIONTECH AG, priority 2009, dated 2016)
